Measurements reported in patent US20150352026A1, “COMPOSITION FOR INCREASING OF THE EFFECTIVENESS OF UV-B THERAPY, PROCESS FOR THE PREPARATION THEREOF, AND ITS USE” (GLOBALDERM KOZMETOLÓGIAI KORLÁTOLT FELELÖSSÉGÜ TÁRSASÁG, priority 2013, published 2015).

Assay: Optical transmittance spectrum (Helios spectrophotometer, 200-600 nm)
Format: physicochemical
Details: sharp decrease around 300 nm, below this value
Experimental: Furthermore, a sharp decrease of transmittance was detectable around 300 nm wavelength and it fell to zero below this value.
Compositions suitable for therapeutic purposes were selected by the measurement of optical transmittance. Measurements were performed using a Helios a spectrophotometer in the wavelength range of 200-600 nm. FIGS. […] and 2 show optical transmittance spectra of Macrogol 400 and the spray formulation of the composition, respectively. FIG. 3 illustrates the optical transmittance spectrum of the gel formulation of the composition.

transmittance around and below 300 nm wavelength: more pronounced
SMILES: O=C(O)c1cccnc1 [nicotinic acid]
